Measurements from patent US20140308317A1, “Polymeric Compounds And Methods Of Making And Using The Same” (CELLCEUTIX CORPORATION, priority 2012, published 2014).
Values after ≈ are worked out from the molar mass of the structure shown.

Legend:
E. Coli ATCC 25922 = test: Minimum Inhibitory Concentration (MIC), modified microbroth dilution; format: cell-based; settings: Escherichia coli, ATCC25922; E. coli (25922); overnight incubation (18 hours); read-out: MIC50 E. coli
[1] = system: Staphylococcus aureus ATCC 27660; test: as above; format: cell-based; settings: Staphylococcus aureus, ATCC27660; S. aureus (27660); overnight incubation (18 hours); read-out: MIC50 S. aureus
[2] = system: Enterococcus faecalis ATCC 29212; test: as above; format: cell-based; settings: Enterococcus faecalis, ATCC29212; E. faecalis (29212); overnight incubation (18 hours); read-out: MIC50 E. faecalis
[3] = system: Pseudomonas aeruginosa ATCC 10145; test: as above; format: cell-based; settings: Pseudomonas aeruginosa, ATCC10145; P. aeruginosa (10145); overnight incubation (18 hours); read-out: MIC50 P. Aeruginosa
[4] = system: Klebsiella pneumoniae ATCC 13883; test: as above; format: cell-based; settings: Klebsiella pneumoniae, ATCC13883; K. pneumoniae (13883); overnight incubation (18 hours); read-out: MIC50 K. Pnuemnoiae
[5] = Cytotoxicity colorimetric (tetrazolium) assay; format: cell-based, mouse; settings: mouse, NIH/3T3 cells (CRL-1658), NIH/3T3 cells; one hour with compound in serum-free media
Description: (§1) Cytotoxicity of the compounds was evaluated in a colorimetric assay using a transformed human liver cell line (HepG2, HB-8065) and an embryonic mouse cell line (NIH/3T3 cells, CRL-1658). This assay measures the bioreduction of a novel tetrazolium compound to a soluble formazan product by viable cells. HepG2 cells were seeded in 96 well plates at 2×10^4 cells/well in MEM medium with 10% fetal bovine serum (FBS) 24 hours prior to use. NIH/3T3 cells were seeded in 96 well plates at 2×10^4 cells/well in DMEM medium with 10% bovine calf serum (BCS) 24 hours prior to use. Cell monolayers were rinsed in serum-free media and incubated for one hour with compounds in serum-free media. After incubation, the media is replaced with serum supplemented media and live cells were measured using the Cell Titer 96 Aqueous […] Assay kit (Promega, Madison, Wis.). EC50 values were determined using a four parameter logistic equation: Y=Bottom+(Top-Bottom)/(1+10̂((LogEC50−X)*HillSlope)).
(§2) Actual results from a representative cytotoxicity assay are shown below in Table 2. Data is expressed as EC50 in μg/mL.

[6] = Cytotoxicity colorimetric (tetrazolium) assay; format: cell-based, human; settings: human, HepG2 cells (HB-8065), HepG2 cells; one hour with compound in serum-free media
Description: as §1, §2

Row | Compound | MIC50 (E. Coli ATCC 25922) | MIC50 [1] | MIC50 [2] | MIC50 [3] | MIC50 [4] | EC50 at 1 h [5] | EC50 at 1 h [6]
1 | NCCCn1c2cc(-c3cccc(N(CCN)CCN)c3)ccc2c2ccc(-c3cccc(N(CCN)CCN)c3)cc21 [Compound 160] | 1.56 µg/mL (≈ 2.7 µM) | 0.39 µg/mL (≈ 0.674 µM) | 6.25 µg/mL (≈ 10.8 µM) | 12.5 µg/mL (≈ 21.6 µM) | 6.25 µg/mL (≈ 10.8 µM) | 451 µg/mL (≈ 779 µM) | 853 µg/mL (≈ 1470 µM)
2 | NCCCOc1cc(OCCCN)cc(-c2ccc(C(=O)c3ccc(-c4cc(OCCCN)cc(OCCCN)c4)cc3)cc2)c1 [Compound 165] | 50 µg/mL (≈ 79.8 µM) | 6.25 µg/mL (≈ 9.97 µM) | 25 µg/mL (≈ 39.9 µM) | 25 µg/mL (≈ 39.9 µM) | > 50 µg/mL | 357 µg/mL (≈ 570 µM) | 355 µg/mL (≈ 566 µM)
3 | NCCCOc1cc(OCCCN)cc(-c2ccc(C(F)(F)c3ccc(-c4cc(OCCCN)cc(OCCCN)c4)cc3)cc2)c1 [Compound 166] | 3.13 µg/mL (≈ 4.82 µM) | 0.39 µg/mL (≈ 0.601 µM) | 1.56 µg/mL (≈ 2.4 µM) | 6.25 µg/mL (≈ 9.63 µM) | 6.25 µg/mL (≈ 9.63 µM) | 84 µg/mL (≈ 129 µM) | 137 µg/mL (≈ 211 µM)
4 | O=C(c1cc(C(=O)N2CCNCC2)cc(-c2ccc3sc4ccc(-c5cc(C(=O)N6CCNCC6)cc(C(=O)N6CCNCC6)c5)cc4c3c2)c1)N1CCNCC1 [Compound 170] | > 100 µg/mL | > 100 µg/mL | > 100 µg/mL | > 100 µg/mL | > 100 µg/mL | 436 µg/mL (≈ 555 µM) | > 1000 µg/mL
5 | N=C(N)NCCCOc1cc(OCCCNC(=N)N)cc(-c2ccc3sc4ccc(-c5cc(OCCCNC(=N)N)cc(OCCCNC(=N)N)c5)cc4c3c2)c1 [Compound 172] | 0.78 µg/mL (≈ 0.979 µM) | 0.049 µg/mL (≈ 0.0615 µM) | 0.78 µg/mL (≈ 0.979 µM) | 6.25 µg/mL (≈ 7.84 µM) | 0.78 µg/mL (≈ 0.979 µM) | 41.4 µg/mL (≈ 51.9 µM) | 35.7 µg/mL (≈ 44.8 µM)
6 | NCCCOc1cc(OCCCN)cc(-c2ccc3sc4ccc(-c5cc(OCCCN)c(OCCCN)c(OCCCN)c5)cc4c3c2)c1 [Compound 182] | 6.25 µg/mL (≈ 8.9 µM) | 1.56 µg/mL (≈ 2.22 µM) | 6.25 µg/mL (≈ 8.9 µM) | 12.5 µg/mL (≈ 17.8 µM) | 25 µg/mL (≈ 35.6 µM) | 78.2 µg/mL (≈ 111 µM) | 173 µg/mL (≈ 246 µM)
7 | N=C(N)NCCc1cc(C#Cc2cccc(C#Cc3cc(CCNC(=N)N)cc(CCNC(=N)N)c3)c2)cc(CCNC(=N)N)c1 [Compound 189] | 1.56 µg/mL (≈ 2.52 µM) | 3.9 to 7.8 µg/mL (≈ 6.3 to 12.6 µM) | 6.25 µg/mL (≈ 10.1 µM) | 6.25 µg/mL (≈ 10.1 µM) | 1.56 µg/mL (≈ 2.52 µM) | 131 µg/mL (≈ 212 µM) | 256 µg/mL (≈ 413 µM)
8 | N=C(N)NCC(CNC(=N)N)c1cc(Br)cc(C#Cc2cccc(C#Cc3cc(Br)cc(C(CNC(=N)N)CNC(=N)N)c3)c2)c1 (centres unmarked) [Compound 191] | 3.13 µg/mL (≈ 4.18 µM) | 1.56 µg/mL (≈ 2.08 µM) | 3.13 µg/mL (≈ 4.18 µM) | 6.25 µg/mL (≈ 8.35 µM) | 6.25 µg/mL (≈ 8.35 µM) | 17.4 µg/mL (≈ 23.3 µM) | 70.3 µg/mL (≈ 93.9 µM)
9 | NCCc1cc(C#Cc2cc(C#Cc3cc(CCN)cc(CCN)c3)c(F)cc2F)cc(CCN)c1 [Compound 192] | 12.5 µg/mL (≈ 25.7 µM) | 3.13 µg/mL (≈ 6.43 µM) | 12.5 µg/mL (≈ 25.7 µM) | 50 µg/mL (≈ 103 µM) | > 50 µg/mL | 542 µg/mL (≈ 1110 µM) | 554 µg/mL (≈ 1140 µM)
10 | N=C(N)NCCc1cc(C#Cc2cc(C#Cc3cc(CCNC(=N)N)cc(CCNC(=N)N)c3)c(F)cc2F)cc(CCNC(=N)N)c1 [Compound 193] | 1.56 µg/mL (≈ 2.38 µM) | 0.39 µg/mL (≈ 0.596 µM) | 1.56 µg/mL (≈ 2.38 µM) | 6.25 µg/mL (≈ 9.55 µM) | 1.56 µg/mL (≈ 2.38 µM) | 62.4 µg/mL (≈ 95.3 µM) | 178 µg/mL (≈ 272 µM)
11 | NCCc1ccc(C#Cc2cccc(C#Cc3ccc(CCN)c(CCN)c3)c2)cc1CCN [Compound 194] | 12.5 µg/mL (≈ 27.7 µM) | 1.56 µg/mL (≈ 3.46 µM) | 6.25 µg/mL (≈ 13.9 µM) | 12.5 µg/mL (≈ 27.7 µM) | > 50 µg/mL | 154 µg/mL (≈ 342 µM) | 192 µg/mL (≈ 426 µM)
12 | N=C(N)NCCc1ccc(C#Cc2cccc(C#Cc3ccc(CCNC(=N)N)c(CCNC(=N)N)c3)c2)cc1CCNC(=N)N [Compound 195] | 3.13 µg/mL (≈ 5.06 µM) | 0.78 µg/mL (≈ 1.26 µM) | 1.56 µg/mL (≈ 2.52 µM) | 12.5 µg/mL (≈ 20.2 µM) | 6.25 µg/mL (≈ 10.1 µM) | 95.8 µg/mL (≈ 155 µM) | 163 µg/mL (≈ 263 µM)
13 | NCCc1cc(C#Cc2ccc(C#Cc3cc(CCN)cc(CCN)c3)cc2)cc(CCN)c1 [Compound 198] | 50 µg/mL (≈ 111 µM) | 25 µg/mL (≈ 55.5 µM) | 50 µg/mL (≈ 111 µM) | 50 µg/mL (≈ 111 µM) | 50 µg/mL (≈ 111 µM) | 282 µg/mL (≈ 626 µM) | 185 µg/mL (≈ 411 µM)
14 | N=C(N)NCCc1cc(C#Cc2ccc(C#Cc3cc(CCNC(=N)N)cc(CCNC(=N)N)c3)cc2)cc(CCNC(=N)N)c1 [Compound 199] | 1.56 µg/mL (≈ 2.52 µM) | 0.78 µg/mL (≈ 1.26 µM) | 12.5 µg/mL (≈ 20.2 µM) | 12.5 µg/mL (≈ 20.2 µM) | 1.56 µg/mL (≈ 2.52 µM) | 116 µg/mL (≈ 188 µM) | 135 µg/mL (≈ 218 µM)
